Earlier results as cited in article PMC3388080 (PLoS ONE, 2012).
pKi: −log10 of the molar value.

Molecular target: hHCRTR1
Design: method as in PMID 9821961
Details: 37°C; cited from earlier work

CNC(=O)[C@@H](c1ccccc1)N1CCc2cc(OC)c(OC)cc2[C@@H]1CCc1ccc(C(F)(F)F)cc1 [almorexant, (2R)-2-[(1S)-6,7-Dimethoxy-1-[2-(4-trifluoromethyl-phenyl)-ethyl]-3,4-dihydro-1H-isoquinolin-2-yl]-N-methyl-2-phenyl-acetamide]
pKi: 8.33
